Measurements: patent US12037345B2, “Heterobicyclic compounds for inhibiting the activity of SHP2” (TAIHO PHARMACEUTICAL CO., LTD., priority 2018, dated 2024)
Like-named read-outs stand apart in the source and are kept apart here.

Assays:
[1] = tested on: pERK (phospho-p44/42 ERK) in HCC827 cells; assay: Cellular pERK Inhibition Assay, Method A (In-Cell Western); type: cell-based; details: Homo sapiens
Procedure: Cellular pERK Inhibition Assay
pERK levels were determined using the In-Cell Western assay. HCC827 cells (ATCC, Manassas, USA) were seeded into 384-well plates at a density of 1×10^4 cells/well in RPMI1640 medium supplemented with 10% FBS and incubated 24h. Compounds were diluted first in DMSO and then into serum-free medium, before being added to cells in quadruplicate to give a final concentration of 0.2% DMSO. Plates were incubated at 37° C. for the indicated time in a humidified atmosphere of 5% CO2 in air.
Following compound treatment, cells were fixed with formalin neutral buffer solution for 20 minutes at room temperature. Plates were washed three times with 0.1% Triton-X in PBS and cells were blocked for 1 hour with Odyssey blocking buffer (LI-COR, #927-40000). After shaking out blocking buffer, cells were incubated with phospho-p44/42 ERK antibody (Cell Signalling Technology, #4370, 1:200) diluted in Odyssey blocking buffer at 4° C. overnight. Plates were washed again and cells were incubated for 1 hour with Goat anti-Rabbit […] (LI-COR, #926-32211, 1:800) diluted in Odyssey blocking buffer. After washing and removing wash solution completely using a centrifuge machine, cells were scanned on the Odyssey (LI-COR), following the manufacturer's instructions. The average signal from blank wells (no cells added) was subtracted from the signals from each sample well. Levels of pERK were then expressed as percent of control, using DMSO treated samples as control. The relative IC50 values were calculated in quadruplicate from the normalized dose-response plots using four parameter logistic curve fit. The Experiment for each compound was carried out in one time or multiple times, and the IC50 values were shown as a single value (for a compound measured in a single experiment) or an average value (for a compound measured in multiple experiments).

SHP2 = SHP2 (Homo sapiens (Human), UniProt Q06124); assay: SHP2 Biochemical Assay (DiFMUP conversion, pIRS1-activated)
Procedure: SHP2 activity was monitored by measuring the conversion of the surrogate substrate 6,8-difluoromethylumbelliferyl phosphate (DiFMUP) to the fluorescent product, 6,8-difluoromethylumbelliferone (DiFMU).
SHP2 was pre-incubated with test compounds and the activating peptide pIRS1 (H2N-LN(pY)IDLDLV-(PEG)8-LST(pY)ASINFQK-amide) for 30 min, prior to addition of the 6,8-difluoromethylumbelliferyl phosphate (DiFMUP), (Thermo Fisher D6567). Final assay concentrations were 10 pM SHP2, […] pIRS1 peptide, 50 μM DiFMUP, 25 mM Bis-Tris propane, pH 7.0, 150 mM NaCl, 0.05% (v/v) Tween-20, 0.5 mM TCEP and 5% (v/v) DMSO. Rates of reaction were then measured over 30 min by monitoring fluorescence on a BMG Pherastar reader at excitation 360 nm/emission 450 nm. IC50 values were calculated in singlicate from the normalized dose-response plots using four parameter logistic curve fit. The Experiment for each compound was carried out in one time or multiple times, and the IC50 values were shown as a single value (for a compound measured in a single experiment) or an average value (for a compound measured in multiple experiments).

[2] = Table 19, head prints unit as "-M", read-out: pERK (IC50) Method A
[3] = Table 19, head prints unit as "-M"
[4] = Table 20, read-out: pERK (IC50, μM) Method A

Chain of SHP2 (Q06124 whole entry): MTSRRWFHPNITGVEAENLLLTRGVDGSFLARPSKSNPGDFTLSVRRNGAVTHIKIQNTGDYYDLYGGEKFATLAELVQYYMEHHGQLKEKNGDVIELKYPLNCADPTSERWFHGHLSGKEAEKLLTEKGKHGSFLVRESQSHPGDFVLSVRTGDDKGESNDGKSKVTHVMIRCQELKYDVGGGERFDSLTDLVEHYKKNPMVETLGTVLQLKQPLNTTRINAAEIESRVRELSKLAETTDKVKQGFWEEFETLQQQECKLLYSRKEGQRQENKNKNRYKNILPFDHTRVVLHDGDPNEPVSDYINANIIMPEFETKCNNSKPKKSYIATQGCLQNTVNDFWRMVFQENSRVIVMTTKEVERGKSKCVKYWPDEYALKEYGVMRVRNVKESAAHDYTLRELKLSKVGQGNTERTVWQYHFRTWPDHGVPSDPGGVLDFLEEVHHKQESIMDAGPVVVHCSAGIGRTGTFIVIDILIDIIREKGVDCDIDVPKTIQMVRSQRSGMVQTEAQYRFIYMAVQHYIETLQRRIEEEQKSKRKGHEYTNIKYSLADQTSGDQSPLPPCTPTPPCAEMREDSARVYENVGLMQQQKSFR

SMILES	IC50 [1, 2] [µM]	IC50 (SHP2; [3]) [nM]	IC50 [1, 4] [µM]	IC50 (SHP2; Table 20) [nM]
Cn1cc2c(Cl)c(-c3c[nH]c4nc(N5[C@@H]6CC[C@H]5[C@H](F)[C@H](N)C6)n(C)c(=O)c34)ccc2n1 (racemic) [Example 26, rac-2-((1S,2R,3R,5R)-3-amino-2-fluoro-8-azabicyclo[3.2.1]octan-8-yl)-5-(4-chloro-2-methyl-2H-indazol-5-yl)-3-methyl-3,7-dihydro-4H-pyrrolo[2,3-d]pyrimidin-4-one]	0.088	11	–	–
CCn1cc2c(Cl)c(-c3n[nH]c4nc(N5C[C@@H]6CC[C@H]5[C@H]6N)n(C)c(=O)c34)ccc2n1 (racemic) [Example 125, rac-6-((1S,4S,7S)-7-amino-2-azabicyclo[2.2.1]heptan-2-yl)-3-(4-chloro-2-ethyl-2H-indazol-5-yl)-5-methyl-1,5-dihydro-4H-pyrazolo[3,4-d]pyrimidin-4-one]	0.26	17	–	–
Cn1nc2ccc(-c3n[nH]c4nc(N5C[C@@H]6CC[C@H]5[C@H]6N)n(C)c(=O)c34)c(Cl)c2c1Cl (racemic) [Example 126, rac-6-((1S,4S,7S)-7-amino-2-azabicyclo[2.2.1]heptan-2-yl)-3-(3,4-dichloro-2-methyl-2H-indazol-5-yl)-5-methyl-1,5-dihydro-4H-pyrazolo[3,4-d]pyrimidin-4-one]	0.084	13	–	–
Cn1c(N2C[C@@H]3CC[C@H]2[C@H]3N)nc2[nH]nc(-c3ccc4ncsc4c3Cl)c2c1=O (racemic) [Example 134, rac-((1S,4S,7S)-7-amino-2-azabicyclo[2.2.1]heptan-2-yl)-3-(7-chlorobenzo[d]thiazol-6-yl)-5-methyl-1,5-dihydro-4H-pyrazolo[3,4-d]pyrimidin-4-one]	0.083	4	–	–
CN[C@H]1[C@H]2CC[C@@H]1N(c1nc3[nH]cc(-c4ccc5nn(C)cc5c4Cl)c3c(=O)n1C)C2 (racemic) [Example 135, rac-5-(4-chloro-2-methyl-2H-indazol-5-yl)-3-methyl-2-((1S,4S,7S)-7-(methylamino)-2-azabicyclo[2.2.1]heptan-2-yl)-3,7-dihydro-4H-pyrrolo[2,3-d]pyrimidin-4-one]	0.95	48	–	–
Cn1cc2c(Cl)c(-c3c[nH]c4nc(N5[C@H]6CC[C@@H]5[C@@H](N)C6)n(C)c(=O)c34)ccc2n1 (racemic) [Example 164, 2-(rac-(1R,2S,4S)-2-amino-7-azabicyclo[2.2.1]heptan-7-yl)-5-(4-chloro-2-methyl-2H-indazol-5-yl)-3-methyl-3,7-dihydro-4H-pyrrolo[2,3-d]pyrimidin-4-one]	–	–	6.3	170
Cn1nc2ccc(-c3c[nH]c4nc(N5[C@H]6CC[C@@H]5[C@](C)(N)C6)n(C)c(=O)c34)c(Cl)c2c1Cl (racemic) [Example 173, rac-2-((1R,2R,4S)-2-amino-2-methyl-7-azabicyclo[2.2.1]heptan-7-yl)-5-(3,4-dichloro-2-methyl-2H-indazol-5-yl)-3-methyl-3,7-dihydro-4H-pyrrolo[2,3-d]pyrimidin-4-one]	–	–	0.14	2.5
Cn1nc2ccc(-c3n[nH]c4nc(N5[C@H]6CC[C@@H]5[C@](C)(N)C6)n(C)c(=O)c34)c(Cl)c2c1Cl (racemic) [Example 175, rac-6-((1R,2R,4S)-2-amino-2-methyl-7-azabicyclo[2.2.1]heptan-7-yl)-3-(3,4-dichloro-2-methyl-2H-indazol-5-yl)-5-methyl-1,5-dihydro-4H-pyrazolo[3,4-d]pyrimidin-4-one]	–	–	0.22	12
Cn1cc2c(Cl)c(-c3c[nH]c4nc(N5C[C@H]6CC[C@@H]5[C@@H]6N)n(C)c(=O)c34)ccc2n1 (stereo in doubt) [Example 157, rel-2-((1R,4R,7R)-7-Amino-2-azabicyclo[2.2.1]heptan-2-yl)-5-(4-chloro-2-methyl-2H-indazol-5-yl)-3-methyl-3,7-dihydro-4H-pyrrolo[2,3-d]pyrimidin-4-one]	0.022	3.7	–	–
Cn1cc2c(Cl)c(-c3c[nH]c4nc(N5C6CCC5CNC6)n(C)c(=O)c34)ccc2n1 [Example 1, 2-(3,8-diazabicyclo[3.2.1]octan-8-yl)-5-(4-chloro-2-methyl-2H-indazol-5-yl)-3-methyl-3,7-dihydro-4H-pyrrolo[2,3-d]pyrimidin-4-one]	0.14	14	–	–
CCn1cc2c(Cl)c(-c3c[nH]c4nc(N5CCC(C)(CN)CC5)n(C)c(=O)c34)ccc2n1 [Example 2, 2-(4-(aminomethyl)-4-methylpiperidin-1-yl)-5-(4-chloro-2-ethyl-2H-indazol-5-yl)-3-methyl-3,7-dihydro-4H-pyrrolo[2,3-d]pyrimidin-4-one]	0.13	14	–	–
CCn1cc2c(Cl)c(-c3c[nH]c4nc(N5CCC(C)(N)CC5)n(C)c(=O)c34)ccc2n1 [Example 3, 2-(4-amino-4-methylpiperidin-1-yl)-5-(4-chloro-2-ethyl-2H-indazol-5-yl)-3-methyl-3,7-dihydro-4H-pyrrolo[2,3-d]pyrimidin-4-one]	0.21	15	–	–
CCn1cc2c(Cl)c(-c3c[nH]c4nc(N5[C@@H]6CC[C@H]5C[C@H](N)C6)n(C)c(=O)c34)ccc2n1 [Example 4, 2-(exo-3-amino-8-azabicyclo[3.2.1]octan-8-yl)-5-(4-chloro-2-ethyl-2H-indazol-5-yl)-3-methyl-3,7-dihydro-4H-pyrrolo[2,3-d]pyrimidin-4-one]	0.12	7.5	–	–
CCn1cc2c(Cl)c(-c3c[nH]c4nc(N5[C@@H]6CC[C@H]5C[C@@H](N)C6)n(C)c(=O)c34)ccc2n1 [Example 5, 2-(endo-3-amino-8-azabicyclo[3.2.1]octan-8-yl)-5-(4-chloro-2-ethyl-2H-indazol-5-yl)-3-methyl-3,7-dihydro-4H-pyrrolo[2,3-d]pyrimidin-4-one]	0.16	7.5	–	–
CCc1nc2ccc(-c3c[nH]c4nc(N5[C@@H]6CC[C@H]5C[C@@H](N)C6)n(C)c(=O)c34)c(Cl)c2s1 [Example 6, 2-(endo-3-amino-8-azabicyclo[3.2.1]octan-8-yl)-5-(7-chloro-2-ethylbenzo[d]thiazol-6-yl)-3-methyl-3,7-dihydro-4H-pyrrolo[2,3-d]pyrimidin-4-one]	0.58	6.5	–	–
Cc1nc2ccc(-c3c[nH]c4nc(N5[C@@H]6CC[C@H]5C[C@@H](N)C6)n(C)c(=O)c34)c(Cl)c2s1 [Example 7, 2-(endo-3-amino-8-azabicyclo[3.2.1]octan-8-yl)-5-(7-chloro-2-methylbenzo[d]thiazol-6-yl)-3-methyl-3,7-dihydro-4H-pyrrolo[2,3-d]pyrimidin-4-one]	0.17	9	–	–
Cn1cc2c(Cl)c(-c3c[nH]c4nc(N5[C@@H]6CC[C@H]5C[C@@H](N)C6)n(C)c(=O)c34)ccc2n1 [Example 8, 2-(endo-3-amino-8-azabicyclo[3.2.1]octan-8-yl)-5-(4-chloro-2-methyl-2H-indazol-5-yl)-3-methyl-3,7-dihydro-4H-pyrrolo[2,3-d]pyrimidin-4-one]	0.095	11	–	–
Cn1c(N2[C@@H]3CC[C@H]2C[C@@H](N)C3)nc2[nH]cc(-c3ccc4nn(C(C)(C)C)cc4c3Cl)c2c1=O [Example 9, 2-(endo-3-amino-8-azabicyclo[3.2.1]octan-8-yl)-5-(2-(tert-butyl)-4-chloro-2H-indazol-5-yl)-3-methyl-3,7-dihydro-4H-pyrrolo[2,3-d]pyrimidin-4-one]	1.2	94	–	–
Cn1nc2ccc(-c3n[nH]c4nc(N5C[C@H]6CC[C@@H]5[C@@H]6N)n(C)c(=O)c34)c(Cl)c2c1Cl [Example 171, 6-((1R,4R,7R)-7-amino-2-azabicyclo[2.2.1]heptan-2-yl)-3-(3,4-dichloro-2-methyl-2H-indazol-5-yl)-5-methyl-1,5-dihydro-4H-pyrazolo[3,4-d]pyrimidin-4-one]	–	–	0.02	–
Cn1nc2ccc(-c3c[nH]c4nc(N5C[C@H]6CC[C@@H]5[C@@H]6N)n(C)c(=O)c34)c(Cl)c2c1Cl [Example 172, 2-((1R,4R,7R)-7-amino-2-azabicyclo[2.2.1]heptan-2-yl)-5-(3,4-dichloro-2-methyl-2H-indazol-5-yl)-3-methyl-3,7-dihydro-4H-pyrrolo[2,3-d]pyrimidin-4-one]	–	–	0.016	–
